In PubChem BioAssay (NCI):
Values joined by “and” are separate entries in the source; they are usually repeats but may differ in a detail not shown here. Equal values may be shown once.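 Each compound was tested at five concentrations against cells in 96-well plates for 48 hours. GI50 is the concentration that inhibits growth by half. TGI: total growth inhibition.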

Experiments:
Test in all cases: NCI-60 cell line screen, 48 h
SN12C renal = system: SN12C renal
M14 melanoma = system: M14 melanoma
MALME-3M melanoma = system: MALME-3M melanoma
RXF 393 renal = system: RXF 393 renal
COLO 205 colon = system: COLO 205 colon
UO-31 renal = system: UO-31 renal
HL-60(TB) leukemia = system: HL-60(TB) leukemia
SF-268 CNS = system: SF-268 CNS
HS 578T breast = system: HS 578T breast
PC-3 prostate = system: PC-3 prostate

CCC(C(=O)[O-])C(=O)[O-].CCC(C(=O)[O-])C(=O)[O-].N.N.NCCCCCN.[Pt+4].[Pt+4]
GI50 (SN12C renal): 15 µM | TGI (SN12C renal): 87.3 µM | GI50 (M14 melanoma): > 100 µM | TGI (M14 melanoma): > 100 µM | GI50 (MALME-3M melanoma): > 100 µM | TGI (MALME-3M melanoma): > 100 µM | GI50 (RXF 393 renal): > 100 µM | TGI (RXF 393 renal): > 100 µM | GI50 (COLO 205 colon): 47.8 µM | TGI (COLO 205 colon): > 100 µM | GI50 (UO-31 renal): > 100 µM | TGI (UO-31 renal): > 100 µM | GI50 (HL-60(TB) leukemia): 43.1 µM | TGI (HL-60(TB) leukemia): > 100 µM | GI50 (SF-268 CNS): > 100 µM | TGI (SF-268 CNS): > 100 µM

FC(F)(F)c1ccc(C=NC23CC4CC(CC(C4)C2)C3)cc1
TGI (SN12C renal): > 100 µM | TGI (M14 melanoma): > 100 µM | TGI (MALME-3M melanoma): > 100 µM | TGI (RXF 393 renal): > 100 µM | TGI (COLO 205 colon): > 100 µM | TGI (UO-31 renal): > 100 µM | TGI (HL-60(TB) leukemia): > 100 µM | TGI (SF-268 CNS): > 100 µM

C=CCNC1=C(C(=O)OCC)C(=O)CO1
TGI (SN12C renal): > 100 µM | TGI (M14 melanoma): > 100 µM | TGI (MALME-3M melanoma): > 100 µM | TGI (RXF 393 renal): > 100 µM | TGI (UO-31 renal): > 100 µM | TGI (HL-60(TB) leukemia): > 100 µM | TGI (SF-268 CNS): > 100 µM

O=C(CC/C(C/C(=N/O)c1ccc(F)cc1)=N/O)N(Cc1ccccc1)Cc1ccccc1
TGI (SN12C renal): > 100 µM | TGI (M14 melanoma): > 100 µM | TGI (MALME-3M melanoma): > 100 µM | TGI (RXF 393 renal): > 100 µM | TGI (COLO 205 colon): > 100 µM | TGI (UO-31 renal): > 100 µM | TGI (HL-60(TB) leukemia): > 100 µM | TGI (SF-268 CNS): > 100 µM

Cc1ccc(S(=O)(=O)N2CCC3(C(/C=C/c4ccccc4)=Nc4ccccc43)C2c2ccccc2)cc1 (stereo unspecified)
TGI (SN12C renal): > 100 µM | TGI (M14 melanoma): > 100 µM | TGI (MALME-3M melanoma): > 100 µM | TGI (RXF 393 renal): > 100 µM | TGI (COLO 205 colon): > 100 µM | TGI (UO-31 renal): > 100 µM | TGI (HL-60(TB) leukemia): > 100 µM | TGI (SF-268 CNS): > 100 µM

C=C(CN(CC(=C)C(=O)c1ccccc1)C(C)(C)C)C(=O)c1ccccc1
TGI (SN12C renal): 32.5 µM | TGI (M14 melanoma): 23 µM | TGI (MALME-3M melanoma): 29.7 µM | TGI (RXF 393 renal): 18.7 µM | TGI (COLO 205 colon): 7.52 µM | TGI (UO-31 renal): 24.3 µM | TGI (HL-60(TB) leukemia): 9.7 µM | TGI (SF-268 CNS): 17 µM

NC1=NC(c2ccccc2)N=C(Nc2ccccc2)N1 (stereo unspecified)
GI50 (SN12C renal): > 100 µM | TGI (SN12C renal): > 100 µM | GI50 (M14 melanoma): > 100 µM | TGI (M14 melanoma): > 100 µM | GI50 (HS 578T breast): 68.5 µM | TGI (HS 578T breast): > 100 µM | GI50 (RXF 393 renal): > 100 µM | TGI (RXF 393 renal): > 100 µM | GI50 (PC-3 prostate): > 100 µM | TGI (PC-3 prostate): > 100 µM | GI50 (COLO 205 colon): 97.9 µM | TGI (COLO 205 colon): > 100 µM | GI50 (HL-60(TB) leukemia): > 100 µM | TGI (HL-60(TB) leukemia): > 100 µM | GI50 (SF-268 CNS): 55.1 µM | TGI (SF-268 CNS): > 100 µM

N#C/C(=C\c1ccc(Br)cc1)n1nnc2cccc(F)c21
GI50 (SN12C renal): 1.55 µM | TGI (SN12C renal): 3.14 µM | GI50 (HS 578T breast): 2.5 µM | TGI (HS 578T breast): 8.14 µM | GI50 (RXF 393 renal): 1.08 µM | TGI (RXF 393 renal): 2.64 µM | GI50 (PC-3 prostate): 0.943 µM | TGI (PC-3 prostate): 3.17 µM | GI50 (COLO 205 colon): 1.98 µM | TGI (COLO 205 colon): 5.02 µM | GI50 (UO-31 renal): 1.41 µM | TGI (UO-31 renal): 2.72 µM | GI50 (SF-268 CNS): 1.73 µM | TGI (SF-268 CNS): 3.51 µM

Cn1cc2c(n1)c(N/N=C/c1ccccc1)nn1nnnc21
TGI (SN12C renal): > 100 µM | TGI (M14 melanoma): > 100 µM | TGI (MALME-3M melanoma): > 100 µM | TGI (RXF 393 renal): > 100 µM | TGI (COLO 205 colon): > 100 µM | TGI (UO-31 renal): > 100 µM | TGI (HL-60(TB) leukemia): > 100 µM | TGI (SF-268 CNS): > 100 µM

CC(=O)OCC1OC(OC2CC3C(C)(C)C(OC(C)=O)CC[C@]3(C)C3CCC45CC4(CC[C@H]5C(C)CC(O)C4OC4(C)C)[C@]23C)C(O)C(O)C1O (stereo partly specified)
GI50 (SN12C renal): 4.44 µM | TGI (SN12C renal): 8.75 µM and 14.9 µM | TGI (M14 melanoma): 6.75 µM and 6.61 µM | GI50 (MALME-3M melanoma): 4.67 µM | TGI (MALME-3M melanoma): 16.6 µM and 8.6 µM | TGI (RXF 393 renal): 4 µM | GI50 (COLO 205 colon): 2.05 µM | TGI (COLO 205 colon): 1.84 µM and 3.79 µM | TGI (UO-31 renal): 11.1 µM and 14.4 µM | GI50 (HL-60(TB) leukemia): 0.623 µM | TGI (HL-60(TB) leukemia): 2.09 µM and 3.03 µM | GI50 (SF-268 CNS): 3.67 µM | TGI (SF-268 CNS): 9.14 µM and 14.5 µM
